Assay results from patent publication US7465740B2, “2-heteroaryl-pyrazolo-[4,3-e]-1,2,4-triazolo-[1,5-c]-pyrimidine adenosine A2a receptor antagonists” (Schering Corporation, priority 2005, dated 2008).

Key:
[1] = target: T1, Human A2a Adenosine Receptor (Homo sapiens, UniProt P29274); experiment: Human adenosine A2a receptor competition binding assay; conditions: [3H]-SCH 58261 displacement, human A2a membranes
T1 construct: purchased Receptor Biology, Inc., Beltsville, Md; RB-HA2a
Method: (§1) Human Adenosine A2a and A1 Receitor Competition Binding Assay Protocol Membrane Sources:
A2a: Human A2a Adenosine Receptor membranes, Catalog #RB-HA2a, Receptor Biology, Inc., Beltsville, Md. Dilute to 17 μg/100 μl in membrane dilution buffer (see below).
(§2) Membrane dilution buffer: Dulbecco's Phosphate Buffered Saline (Gibco/BRL)+10 mM MgCl2.
(§3) Compound Dilution Buffer: Dulbecco's Phosphate Buffered Saline (Gibco/BRL)+10 mM MgCl2 supplemented with 1.6 mg/ml methyl cellulose and 16% DMSO. Prepared fresh daily.
A2a: [3H]-SCH 58261, custom synthesis, AmershamPharmacia Biotech, Piscataway, N.J. Stock is prepared at 1 nM in membrane dilution buffer. Final assay concentration is 0.5 nM.
A2a: To determine non-specific binding, add 100 nM CGS 15923 (RBI, Natick, Mass.). Working stock is prepared at 400 nM in compound dilution buffer.
(§4) Prepare 1 mM stock solutions of compounds in 100% DMSO. Dilute in compound dilution buffer. Test at 10 concentrations ranging from 3 μM to 30 pM. Prepare working solutions at 4× final concentration in compound dilution buffer.
(§5) Perform assays in deep well 96 well plates. Total assay volume is 200 μl. Add 50 μl compound dilution buffer (total ligand binding) or 50 μl CGS 15923 working solution (A2a non-specific binding) or 50 μl NECA working solution (A1 non-specific binding) or 50 μl of drug working solution. Add 50 μl ligand stock ([3H]-SCH 58261 for A2a, [3H]-DPCPX for A1). […]

A1 receptor = target: T2, A1 receptor (Homo sapiens, UniProt P30542); experiment: Human adenosine A1 receptor competition binding assay (for selectivity); conditions: A1/A2a Ki ratio
T2 sequence (P30542 1-326): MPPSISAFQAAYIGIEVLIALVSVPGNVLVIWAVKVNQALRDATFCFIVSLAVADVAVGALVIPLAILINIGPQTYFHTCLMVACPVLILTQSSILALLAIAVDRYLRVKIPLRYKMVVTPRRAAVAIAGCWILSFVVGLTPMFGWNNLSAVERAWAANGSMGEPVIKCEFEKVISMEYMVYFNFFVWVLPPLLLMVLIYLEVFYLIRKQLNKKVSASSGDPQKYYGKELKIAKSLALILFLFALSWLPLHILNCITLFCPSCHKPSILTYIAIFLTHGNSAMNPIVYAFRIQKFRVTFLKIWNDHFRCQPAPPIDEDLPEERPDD
Method: as §1, §2, §3
A1: [3H]-DPCPX, Amersham Pharmacia Biotech, Piscataway, N.J. Stock is prepared at 2 nM in membrane dilution buffer. Final assay concentration is 1 nM.
A1: To determine non-specific binding, add 100 μM NECA (RBI, Natick, Mass.). Working stock is prepared at 400 μM in compound dilution buffer.
as §4
as §5, with “A1). Add 100 μl of diluted membranes containing the appropriate receptor. Mix. Incubate at room temperature for 90 minutes.” for “A1).”
Selectivity is determined by dividing Ki for A1 receptor by Ki for A2a receptor. […]

T1 sequence (P29274 whole entry): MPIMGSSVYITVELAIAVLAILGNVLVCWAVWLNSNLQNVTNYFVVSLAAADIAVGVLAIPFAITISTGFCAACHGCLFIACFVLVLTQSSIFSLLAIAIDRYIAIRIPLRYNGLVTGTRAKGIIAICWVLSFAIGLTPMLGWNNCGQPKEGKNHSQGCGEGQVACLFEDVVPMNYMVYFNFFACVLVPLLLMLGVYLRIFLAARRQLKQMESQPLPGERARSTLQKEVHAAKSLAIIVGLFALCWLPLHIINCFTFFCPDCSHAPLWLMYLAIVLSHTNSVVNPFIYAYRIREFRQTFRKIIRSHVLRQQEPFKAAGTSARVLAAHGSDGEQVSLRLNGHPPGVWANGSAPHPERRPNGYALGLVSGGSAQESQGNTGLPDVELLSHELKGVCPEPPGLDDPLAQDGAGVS

Ki [1] [nM]	selectivity (Ki for A1 receptor divided by Ki for A2a receptor) (A1 receptor)	Structure (SMILES)
0.2	–	Cc1nc(-c2ccc(F)c(N3CCN(CCn4ncc5c4nc(N)n4nc(-c6cnccn6)nc54)CC3)c2)co1 [Example 1]
–	above 9000	Cc1nccnc1-c1nc2c3cnn(CCN4CCN(c5cc(-c6ncco6)ccc5F)CC4)c3nc(N)n2n1 [Example 2-28]
